Reference: ChEMBL document CHEMBL5244215, “Recent advancement of piperidine moiety in treatment of cancer- A review” (Eur J Med Chem, 2018)
≈ marks a conversion by molar mass, not a printed value. Counter-ions that a name gives are not always drawn.

Assays:
[1] = test system: HCT-116; assay: cells; assay type: functional, cell-based; conditions: Homo sapiens, HCT-116, 48 h
[2] = test system: KM12; assay: cells; assay type: functional, cell-based; conditions: Homo sapiens, KM12, 48 h
[3] = test system: BEL-7404 tumor cell line; assay: cells; assay type: functional, cell-based; conditions: Homo sapiens, BEL-7404, 72 h
Description: Antiproliferative activity against human BEL-7404 tumor cell line assessed as inhibition of cell proliferation incubated for 72 hrs by MTT assay

[4] = test system: CCRF-CEM; assay: cells; assay type: functional, cell-based; conditions: Homo sapiens, 48 h
[5] = test system: MCF7; assay: cells; assay type: functional; conditions: Homo sapiens, time 48 hrs
Description: Growth inhibition at human MCF7 cells incubated for 48 hrs by SRB assay

[6] = cells; assay type: functional, cell-based; conditions: Homo sapiens, QBC939, light or radiation study, 24 h
Description: Phototoxicity against human QBC939 cells assessed as inhibition of cell growth incubated for 24 hrs followed by irradiated with 54 J/cm^2 of light dose and measured after 24 hrs by MTT colorimetric assay

[7] = test system: COLO 205; assay: cells; assay type: functional, cell-based; conditions: Homo sapiens, COLO 205, 0.5 h
Description: Cytotoxicity against human COLO 205 cells assessed as inhibition of cell growth incubated for 30 mins by SRB assay

[8] = test system: K562; assay: cells; assay type: functional, cell-based; conditions: Homo sapiens
Description: Antileukemic activity against human K562 cells assessed as inhibition of cell growth incubated for 48 to 72 hrs by MTT assay

[9] = test system: CCRF-CEM; assay: cells; assay type: functional, cell-based; conditions: Homo sapiens
Description: Antileukemic activity against human CEM cells assessed as inhibition of cell growth incubated for 48 to 72 hrs by MTT assay

[10] = test system: HSC-2; assay: cells; assay type: functional; conditions: Homo sapiens, time 48 hrs
Description: Cytotoxicity against human HSC-2 cells assessed as reduction in cell viability incubated for 48 hrs by MTT assay

[11] = test system: Ca9-22; assay: cells; assay type: functional; conditions: Homo sapiens, time 48 hrs
Description: Cytotoxicity against human Ca9-22 cells assessed as reduction in cell viability incubated for 48 hrs by MTT assay

[12] = test system: HSC-4; assay: cells; assay type: functional; conditions: Homo sapiens, time 48 hrs
Description: Cytotoxicity against human HSC-4 cells assessed as reduction in cell viability incubated for 48 hrs by MTT assay

[13] = test system: HSC-3; assay: cells; assay type: functional; conditions: Homo sapiens, time 48 hrs
Description: Cytotoxicity against human HSC-3 cells assessed as reduction in cell viability incubated for 48 hrs by MTT assay

[14] = test system: PANC-1; assay: cells; assay type: functional; conditions: Homo sapiens, time 48 hrs
Description: Growth inhibition at human PANC-1 cells incubated for 48 hrs by SRB assay

[15] = test system: HepG2; assay: cells; assay type: functional, cell-based; conditions: Homo sapiens, HepG2, 48 h
Description: Antiproliferative activity against human HepG2 cells assessed as reduction in cell viability incubated for 48 hrs by MTT spectrophotometric assay

[16] = test system: A549; assay: cells; assay type: functional, cell-based; conditions: Homo sapiens, A549, 48 h
[17] = test system: SK-N-SH; assay: cells; assay type: functional, cell-based; conditions: Homo sapiens, 48 h
[18] = test system: K562; assay: cells; assay type: functional, cell-based; conditions: Homo sapiens; remark: listed apart in the source
Description: Antiproliferative activity against human K562 cells assessed as inhibition of cell proliferation incubated for 48 to 72 hrs by MTT assay

[19] = test system: REH; assay: cells; assay type: functional, cell-based; conditions: Homo sapiens
Description: Antiproliferative activity against human REH cells assessed as inhibition of cell proliferation incubated for 48 to 72 hrs by MTT assay

[20] = test system: IMR-32; assay: cells; assay type: functional, cell-based; conditions: Homo sapiens, IMR-32, 0.5 h
Description: Cytotoxicity against human IMR-32 cells assessed as inhibition of cell growth incubated for 30 mins by SRB assay

[21] = test system: K562; assay: cells; assay type: functional, cell-based; conditions: Homo sapiens, K562, 48 h
[22] = test system: IMR-32; assay: cells; assay type: functional; conditions: Homo sapiens, time 48 hrs
Description: Growth inhibition at human IMR-32 cells incubated for 48 hrs by SRB assay

[23] = test system: MDA-MB-231; assay: cells; assay type: functional; conditions: Homo sapiens, time 48 hrs
Description: Growth inhibition at human MDA-MB-231 cells incubated for 48 hrs by SRB assay

[24] = in vitro; conditions: human, wi-38
[25] = test system: SW-620; assay: cells; assay type: functional, cell-based; conditions: Homo sapiens, SW-620, 48 h
[26] = test system: HCC 2998; assay: cells; assay type: functional, cell-based; conditions: Homo sapiens, HCC 2998, 48 h
[27] = test system: COLO 205; assay: cells; assay type: functional, cell-based; conditions: Homo sapiens, COLO 205, 48 h
[28] = test system: HT-29; assay: cells; assay type: functional, cell-based; conditions: Homo sapiens, HT-29, 48 h
[29] = test system: HCT-15; assay: cells; assay type: functional, cell-based; conditions: Homo sapiens, HCT-15, 48 h
[30] = test system: SNB-19; assay: cells; assay type: functional; conditions: Homo sapiens, time 72 hrs, read-out: ED50 (the source's name)
Description: Antiproliferative activity against human SNB-19 cells assessed as cell growth inhibition incubated for 72 hrs by WST-1 assay

[31] = animal or person; assay type: functional, organism-based; conditions: Homo sapiens, QBC939, light or radiation study, 336 h
[32] = test system: SiHa; assay: cells; assay type: functional; conditions: Homo sapiens, time 48 hrs
Description: Growth inhibition at human SiHa cells incubated for 48 hrs by SRB assay

[33] = test system: NCI-H3122; assay: cells; assay type: functional, cell-based; conditions: Homo sapiens
Description: Antiproliferative activity against human NCI-H3122 cells assessed as inhibition of cell proliferation

[34] = test system: P388; assay: cells; assay type: functional, cell-based; conditions: Mus musculus, P388, 48 h
[35] = test system: L1210; assay: cells; assay type: functional, cell-based; conditions: Mus musculus, L1210, 48 h
[36] = cells; assay type: functional, cell-based, Molt 4/C8; conditions: Homo sapiens, Molt4/C8, 48 h

CCN1CC[C@@](O)(c2ccc(Oc3ccc(Cl)cc3)cc2)[C@H](C(=O)c2ccc(Oc3ccc(Cl)cc3)cc2)C1
IC50 [1]: 3.8 µM
IC50 [2]: 2.57 µM

CCOC(=O)C12CC3CC(C1)CC(C(=O)OC1CC(C)(C)N(O)C(C)(C)C1)(C3)C2
IC50 [3]: 4.33 µM

O=C1/C(=C/c2ccccc2)CN(C(=O)c2ccc(/C=C/C(=O)c3ccccc3)cc2)C/C1=C\c1ccccc1
IC50 [4]: 1.58 µM

O=C(/C=C/c1ccc(Cl)cc1)c1ccc(OCCN2CCCCC2)cc1
GI50 [5]: < 10 µM

COC(C)c1c(C)c2cc3nc(cc4[nH]c(cc5nc(cc1[nH]2)C(C)=C5CCC(=O)O)c(CCC(=O)O)c4C)C(C)=C3C(C)O (stereo not drawn)
IC50 [6]: 9.46 µM

CN1O[C@@H](c2ccccc2)[C@@H]2CN(c3ccccc3)c3oc4ccccc4c(=O)c3[C@@H]21
IC50 [7]: 12.6 µM

COc1ccc(C(=O)c2ccc(OCC(=O)N3CCC(CCCC4CCN(C(=O)Nc5ccc(Cl)cc5)CC4)CC3)cc2)c(OC)c1
IC50 [8]: 1.6 µM
IC50 [9]: 2 µM

O=C(/C=C/c1ccccc1)c1ccc(OCCN2CCCC2)cc1
GI50 [5]: < 10 µM

COc1cc(/C=C2\Cc3ccccc3C2=O)cc(CN2CCCCC2)c1O
CC50 [10]: 7.7 µM
CC50 [11]: 6.5 µM
CC50 [12]: 9.9 µM
CC50 [13]: 8.4 µM

COc1ccc(CNC(=O)NC2CCN(c3cc(-c4ccc(OC)cc4F)ncn3)CC2)cc1
GI50 [14]: 0.47 µM

O=C(NC1CCN(Cc2c(F)cccc2F)CC1)c1ccc(Oc2ccccc2)cc1
IC50 [15]: 0.25 µM

O=C(/C=C/c1ccc(OCCN2CCCCC2)cc1)c1ccc(F)cc1
GI50 [5]: < 10 µM

COC(=O)C1C(=O)CC(c2ccc(OC)cc2)N(c2ccccc2)C1c1ccc(OC)cc1 (stereo not drawn)
IC50 [16]: 27 µM
IC50 [17]: 11 µM

O=C(c1ccc(F)c([N+](=O)[O-])c1)N1CCC(CCCC2CCNCC2)CC1
IC50 [18]: 2 µM
IC50 [19]: 2.3 µM

O=C(/C=C/c1ccc(OCCN2CCCCC2)cc1)c1ccccc1
GI50 [5]: < 10 µM

COc1cccc2c1C(=O)c1c(O)c3c(c(O)c1C2=O)C[C@@](O)(C(=O)CO)C[C@@H]3O[C@H]1C[C@H](N)[C@H](O)[C@H](C)O1 [DOXORUBICIN HYDROCHLORIDE]
IC50 [20]: 1.7 µM

O=c1[nH]cc(F)c(=O)[nH]1 [FLUOROURACIL]
IC50 [21]: 8.48 µg/mL (≈ 65.2 µM)
IC50 [7]: 27.7 µM

O=C(Nc1ccccc1)NC1CCN(c2cc(-c3ccc(Oc4ccccc4)cc3)ncn2)CC1
GI50 [22]: 0.65 µM

COc1ccc(CNC(=O)NC2CCN(c3cc(-c4ccc(Oc5ccccc5)cc4)ncn3)CC2)cc1
GI50 [23]: 0.2 µM

COc1cc(/C=C/C(=O)N2CCC=C(Cl)C2=O)cc(OC)c1OC
IC50 at 48 h [24]: > 60 µM

CCN1CC[C@@](O)(c2ccc(Oc3ccccc3)cc2)[C@H](C(=O)c2ccc(Oc3ccccc3)cc2)C1
IC50 [25]: 6.61 µM
IC50 [26]: 12 µM

CCN1CC[C@@](O)(c2ccc(Oc3ccc(C)cc3)cc2)[C@H](C(=O)c2ccc(Oc3ccc(C)cc3)cc2)C1
IC50 [27]: 12 µM
IC50 [28]: 3.31 µM
IC50 [29]: 3.98 µM

Cn1cnc2nc(SCCN3CCCCC3)nc(SCCN3CCCCC3)c21
EC50 [30]: 9.18 µg/mL (≈ 21.8 µM)

COc1ccc(/C2=C3\C=CC(=N3)/C(c3ccc(OC)cc3)=c3/cc/c([nH]3)=C(\c3ccc(OC)cc3)C3=NC(C(N4CCCCC4)=C3)C(c3ccc(OC)cc3)c3ccc2[nH]3)cc1 (stereo not drawn)
IC50 [31]: 5.48 µM

c1cc2c(cc1CN1CCC(=NN=C3CCN(Cc4ccc5c(c4)OCO5)CC3)CC1)OCO2
IC50 [21]: 6.35 µg/mL (≈ 13.7 µM)

COC(=O)c1ccc(NC(=O)NC2CCN(c3cc(-c4ccc(OC)cc4F)ncn3)CC2)cc1
GI50 [32]: 0.22 µM

COc1cc(C2CCN(C(=O)CO)CC2)ccc1Nc1ncc(C(F)(F)F)c(Nc2ccc(C3CCN(C(=O)CO)CC3)cc2OC)n1
IC50 [33]: 0.046 µM

O=C(/C=C/c1ccccc1)c1ccc(OCCN2CCCCC2)cc1
GI50 [5]: < 10 µM

COc1ccc(C(=O)c2ccc(OCC(=O)N3CCC(CCCC4CCN(C(=O)Nc5ccc(F)cc5)CC4)CC3)cc2)c(OC)c1
IC50 [8]: 2.2 µM
IC50 [9]: 2.3 µM

COc1ccc(/C=C/C(=O)c2ccc(OCCN3CCCCC3)cc2)cc1
GI50 [5]: < 10 µM

CN1OC[C@@H]2CN(c3ccccc3)c3oc4cc(Cl)ccc4c(=O)c3[C@@H]21
IC50 [20]: 10.1 µM

O=C1/C(=C/c2ccccc2)CN(C(=O)c2ccc(/C=C/C(=O)c3ccc([N+](=O)[O-])cc3)cc2)C/C1=C\c1ccccc1
IC50 [34]: 0.221 µM

COc1ccc(C(=O)c2ccc(OCC(=O)N3CCC(CCCC4CCN(C(=S)Nc5ccc(Cl)cc5)CC4)CC3)cc2)c(OC)c1
IC50 [8]: 2.1 µM
IC50 [9]: 2.1 µM

O=C1/C(=C/c2ccccc2)CN(C(=O)c2ccc(/C=C/C(=O)c3ccc(O)cc3)cc2)C/C1=C\c1ccccc1
IC50 [35]: 5.34 µM
IC50 [36]: 1.6 µM
